From patent publication US20090018134A1, “Compounds - 945” (AstraZeneca AB, priority 2007, published 2009)

Biological target: T1, mTOR (Homo sapiens, UniProt P42345)
T1 construct: FLAG; made in house
Test: In Vitro mTOR Kinase Assay (Echo), Test (a)(ii)
Assay type: biochemical
Details: table of enzyme assay Test (a)(ii); read-out: Test (a)(ii) IC50
Method in brief: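 AlphaScreen read-out: biotinylated substrate phosphorylation was detected with anti-p70 S6K (T389) 1A5 antibody, Protein A acceptor and streptavidin donor beads after overnight dark incubation at room temperature. Enzyme was FLAG-mTOR 1362-2549 from stable HEK293 cells.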

T1 sequence (P42345 1362-2549): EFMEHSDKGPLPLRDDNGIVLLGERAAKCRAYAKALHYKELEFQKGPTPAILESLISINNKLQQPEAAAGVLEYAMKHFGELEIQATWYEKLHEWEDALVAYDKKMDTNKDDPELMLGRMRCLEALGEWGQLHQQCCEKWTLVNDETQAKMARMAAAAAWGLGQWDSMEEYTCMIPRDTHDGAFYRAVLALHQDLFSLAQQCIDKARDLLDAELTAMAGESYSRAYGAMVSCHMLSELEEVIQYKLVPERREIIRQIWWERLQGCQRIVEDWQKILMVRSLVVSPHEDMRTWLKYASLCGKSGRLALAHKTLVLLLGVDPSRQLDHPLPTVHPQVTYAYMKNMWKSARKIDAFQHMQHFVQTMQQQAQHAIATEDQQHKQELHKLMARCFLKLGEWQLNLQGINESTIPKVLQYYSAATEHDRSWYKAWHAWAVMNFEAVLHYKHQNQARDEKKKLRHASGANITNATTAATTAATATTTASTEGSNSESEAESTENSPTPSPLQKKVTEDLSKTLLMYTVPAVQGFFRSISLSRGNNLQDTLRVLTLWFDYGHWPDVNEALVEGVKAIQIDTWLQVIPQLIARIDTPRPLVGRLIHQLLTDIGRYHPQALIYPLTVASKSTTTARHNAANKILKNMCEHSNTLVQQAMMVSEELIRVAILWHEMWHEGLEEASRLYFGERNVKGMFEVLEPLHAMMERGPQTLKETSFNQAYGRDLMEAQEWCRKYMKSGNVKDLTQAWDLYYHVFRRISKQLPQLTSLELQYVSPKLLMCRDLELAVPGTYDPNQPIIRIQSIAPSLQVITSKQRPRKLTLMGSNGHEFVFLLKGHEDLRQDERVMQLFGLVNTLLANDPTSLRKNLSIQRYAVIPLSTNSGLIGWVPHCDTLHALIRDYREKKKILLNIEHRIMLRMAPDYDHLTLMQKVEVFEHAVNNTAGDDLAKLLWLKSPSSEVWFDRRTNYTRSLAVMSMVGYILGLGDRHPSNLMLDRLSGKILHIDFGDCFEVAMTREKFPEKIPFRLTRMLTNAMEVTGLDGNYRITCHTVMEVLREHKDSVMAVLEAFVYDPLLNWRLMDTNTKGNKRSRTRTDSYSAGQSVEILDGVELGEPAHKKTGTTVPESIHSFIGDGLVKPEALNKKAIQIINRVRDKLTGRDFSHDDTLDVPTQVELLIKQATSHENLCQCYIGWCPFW

| Compound | IC50 [nM] |
| --- | --- |
| CNC(=O)Nc1ccc(-c2nc(N3CCOC[C@@H]3C)cc(C3(S(=O)(=O)c4ccc(C#N)cc4)CC3)n2)cc1 [Example 77a, 1-[4-[4-[1-(4-cyanophenyl)sulfonylcyclopropyl]-6-[(3S)-3-methylmorpholin-4-yl]pyrimidin-2-yl]phenyl]-3-methylurea] | 5.24 |
| CCNC(=O)Nc1ccc(-c2nc(N3CCOC[C@@H]3C)cc(C3(S(=O)(=O)c4ccc(C#N)cc4)CC3)n2)cc1 [Example 77b, 3-[4-[4-[1-(4-cyanophenyl)sulfonylcyclopropyl]-6-[(3S)-3-methylmorpholin-4-yl]pyrimidin-2-yl]phenyl]-1-ethylurea] | 8.6 |
| C[C@H]1COCCN1c1cc(C2(S(=O)(=O)c3ccc(C#N)cc3)CC2)nc(-c2ccc(NC(=O)NCCO)cc2)n1 [Example 77c, 1-[4-[4-[1-(4-cyanophenyl)sulfonylcyclopropyl]-6-[(3S)-3-methylmorpholin-4-yl]pyrimidin-2-yl]phenyl]-3-(2-hydroxyethyl)urea] | 4.37 |
| C[C@H]1COCCN1c1cc(C2(S(=O)(=O)c3ccc(C#N)cc3)CC2)nc(-c2ccc(NC(=O)NCC(F)F)cc2)n1 [Example 77d, 1-[4-[4-[1-(4-cyanophenyl)sulfonylcyclopropyl]-6-[(3S)-3-methylmorpholin-4-yl]pyrimidin-2-yl]phenyl]-3-(2,2-difluoroethyl)urea] | 10.1 |
| C[C@H]1COCCN1c1cc(C2(S(=O)(=O)c3ccc(C#N)cc3)CC2)nc(-c2ccc(NC(=O)NCCF)cc2)n1 [Example 77e, 1-[4-[4-[1-(4-cyanophenyl)sulfonylcyclopropyl]-6-[(3S)-3-methylmorpholin-4-yl]pyrimidin-2-yl]phenyl]-3-(2-fluoroethyl)urea] | 5.17 |
| C[C@H]1COCCN1c1cc(C2(S(=O)(=O)c3ccc(C#N)cc3)CC2)nc(-c2ccc(NC(=O)Nc3cnn(C)c3)cc2)n1 [Example 77f, 1-[4-[4-[1-(4-cyanophenyl)sulfonylcyclopropyl]-6-[(3S)-3-methylmorpholin-4-yl]pyrimidin-2-yl]phenyl]-3-(1-methylpyrazol-4-yl)urea] | 9.19 |
| Cc1nc(C)c(S(=O)(=O)C2(c3cc(N4CCOC[C@@H]4C)nc(-c4ccc(NC(=O)NC5CC5)cc4)n3)CC2)s1 [Example 78, 3-Cyclopropyl-1-[4-[4-[1-[(2,4-dimethyl-1,3-thiazol-5-yl)sulfonyl]cyclopropyl]-6-[(3S)-3-methylmorpholin-4-yl]pyrimidin-2-yl]phenyl]urea] | 41.8 |
| C[C@H]1COCCN1c1cc(C2(S(=O)(=O)CCC(C)(C)O)CC2)nc(-c2ccc(NC(=O)NC3CC3)cc2)n1 [Example 79, 3-Cyclopropyl-1-[4-[4-[1-(3-hydroxy-3-methylbutyl)sulfonylcyclopropyl]-6-[(3S)-3-methylmorpholin-4-yl]pyrimidin-2-yl]phenyl]urea] | 18.6 |
| Cc1nc(S(=O)(=O)C2(c3cc(N4CCOC[C@@H]4C)nc(-c4ccc(NC(=O)NCC(F)F)cc4)n3)CC2)sc1C [Example 80, 3-(2,2-Difluoroethyl)-1-[4-[4-[1-[(4,5-dimethyl-1,3-thiazol-2-yl)sulfonyl]cyclopropyl]-6-[(3S)-3-methylmorpholin-4-yl]pyrimidin-2-yl]phenyl]urea] | 19.7 |

Next, values leading:

| IC50 [nM] | Compound |
| --- | --- |
| 15.3 | CNC(=O)Nc1ccc(-c2nc(N3CCOC[C@@H]3C)cc(C3(S(=O)(=O)c4sc(C)nc4C)CC3)n2)cc1 [Example 78a, 1-[4-[4-[1-[(2,4-dimethyl-1,3-thiazol-5-yl)sulfonyl]cyclopropyl]-6-[(3S)-3-methylmorpholin-4-yl]pyrimidin-2-yl]phenyl]-3-methylurea] |
| 33.3 | CCNC(=O)Nc1ccc(-c2nc(N3CCOC[C@@H]3C)cc(C3(S(=O)(=O)c4sc(C)nc4C)CC3)n2)cc1 [Example 78b, 3-[4-[4-[1-[(2,4-dimethyl-1,3-thiazol-5-yl)sulfonyl]cyclopropyl]-6-[(3S)-3-methylmorpholin-4-yl]pyrimidin-2-yl]phenyl]-1-ethylurea] |
| 20.9 | Cc1nc(C)c(S(=O)(=O)C2(c3cc(N4CCOC[C@@H]4C)nc(-c4ccc(NC(=O)NCCO)cc4)n3)CC2)s1 [Example 78c, 1-[4-[4-[1-[(2,4-dimethyl-1,3-thiazol-5-yl)sulfonyl]cyclopropyl]-6-[(3S)-3-methylmorpholin-4-yl]pyrimidin-2-yl]phenyl]-3-(2-hydroxyethyl)urea] |
| 17.5 | Cc1nc(C)c(S(=O)(=O)C2(c3cc(N4CCOC[C@@H]4C)nc(-c4ccc(NC(=O)NCC(F)F)cc4)n3)CC2)s1 [Example 78d, 3-(2,2-difluoroethyl)-1-[4-[4-[1-[(2,4-dimethyl-1,3-thiazol-5-yl)sulfonyl]cyclopropyl]-6-[(3S)-3-methylmorpholin-4-yl]pyrimidin-2-yl]phenyl]urea] |
| 23.9 | Cc1nc(C)c(S(=O)(=O)C2(c3cc(N4CCOC[C@@H]4C)nc(-c4ccc(NC(=O)NCCF)cc4)n3)CC2)s1 [Example 78e, 1-[4-[4-[1-[(2,4-dimethyl-1,3-thiazol-5-yl)sulfonyl]cyclopropyl]-6-[(3S)-3-methylmorpholin-4-yl]pyrimidin-2-yl]phenyl]-3-(2-fluoroethyl)urea] |
| 29.1 | Cc1nc(C)c(S(=O)(=O)C2(c3cc(N4CCOC[C@@H]4C)nc(-c4ccc(NC(=O)Nc5cnn(C)c5)cc4)n3)CC2)s1 [Example 78f, 1-[4-[4-[1-[(2,4-dimethyl-1,3-thiazol-5-yl)sulfonyl]cyclopropyl]-6-[(3S)-3-methylmorpholin-4-yl]pyrimidin-2-yl]phenyl]-3-(1-methylpyrazol-4-yl)urea] |
| 22.2 | CNC(=O)Nc1ccc(-c2nc(N3CCOC[C@@H]3C)cc(C3(S(=O)(=O)CCC(C)(C)O)CC3)n2)cc1 [Example 79a, 1-[4-[4-[1-(3-hydroxy-3-methylbutyl)sulfonylcyclopropyl]-6-[(3S)-3-methylmorpholin-4-yl]pyrimidin-2-yl]phenyl]-3-methylurea] |
| 10.9 | C[C@H]1COCCN1c1cc(C2(S(=O)(=O)CCC(C)(C)O)CC2)nc(-c2ccc(NC(=O)NCCO)cc2)n1 [Example 79b, 3-(2-hydroxyethyl)-1-[4-[4-[1-(3-hydroxy-3-methylbutyl)sulfonylcyclopropyl]-6-[(3S)-3-methylmorpholin-4-yl]pyrimidin-2-yl]phenyl]urea] |
| 16.1 | C[C@H]1COCCN1c1cc(C2(S(=O)(=O)CCC(C)(C)O)CC2)nc(-c2ccc(NC(=O)NCCF)cc2)n1 [Example 79d, 3-(2-fluoroethyl)-1-[4-[4-[1-(3-hydroxy-3-methylbutyl)sulfonylcyclopropyl]-6-[(3S)-3-methylmorpholin-4-yl]pyrimidin-2-yl]phenyl]urea] |
| 25.9 | C[C@H]1COCCN1c1cc(C2(S(=O)(=O)CCC(C)(C)O)CC2)nc(-c2ccc(NC(=O)Nc3cnn(C)c3)cc2)n1 [Example 79e, 1-[4-[4-[1-(3-hydroxy-3-methylbutyl)sulfonylcyclopropyl]-6-[(3S)-3-methylmorpholin-4-yl]pyrimidin-2-yl]phenyl]-3-(1-methylpyrazol-4-yl)urea] |
| 39.8 | CCNC(=O)Nc1ccc(-c2nc(N3CCOC[C@@H]3C)cc(C3(S(=O)(=O)CCC(C)(C)O)CC3)n2)cc1 [Example 79f, 1-ethyl-3-[4-[4-[1-(3-hydroxy-3-methylbutyl)sulfonylcyclopropyl]-6-[(3S)-3-methylmorpholin-4-yl]pyrimidin-2-yl]phenyl]urea] |
